The values that follow come from ChEMBL document CHEMBL3588852, “Gastroprotective activity of ent-beyerene derivatives in mice: Effects on gastric secretion, endogenous prostaglandins and non-protein sulfhydryls” (Bioorg Med Chem Lett, 2015).

Each structure is given as a SMILES string.

For one assay, the system named is AGS. Kind of assay: Cytotoxic activity against human AGS cells assessed as reduction in cell viability incubated for 48 hrs by MTT assay. The assay is classed as cell-based.
Details: not given
(In general: Tetrazolium assays rely on reduction of a dye to a coloured formazan, in cell work by metabolically active cells.)
The term IC50 denotes the concentration at which inhibition is half-maximal. Take `C[C@]12C=C[C@@]3(CC[C@@H]4[C@@](C)(COC(=O)/C=C/c5ccc([N+](=O)[O-])cc5)CCC[C@@]4(C)[C@@H]3CC1)C2`: the IC50 was determined as 35 µM.

Take `C[C@]12C=C[C@@]3(CC[C@@H]4[C@@](C)(COC(=O)/C=C/c5ccc(F)cc5)CCC[C@@]4(C)[C@@H]3CC1)C2`: the half-maximal inhibitory concentration (IC50) was 58 µM.

Turning to `COc1ccc(/C=C/C(=O)OC[C@@]2(C)CCC[C@]3(C)[C@@H]2CC[C@@]24C=C[C@@](C)(CC[C@H]23)C4)cc1`, the IC50 was determined as 230 µM.

As to `C[C@]12C=C[C@@]3(CC[C@@H]4[C@@](C)(COC(=O)/C=C/c5cccc(Cl)c5)CCC[C@@]4(C)[C@@H]3CC1)C2`, the IC50 came out at 12 µM.

Consider `CCCCCCCCCCCCCC(=O)OC[C@@]1(C)CCC[C@]2(C)[C@@H]1CC[C@@]13C=C[C@@](C)(CC[C@H]12)C3`, for which the half-inhibitory concentration (IC50) is 38 µM.

Turning to `CCCCCCCCCCCCCCCCCCCC(=O)OC[C@@]1(C)CCC[C@]2(C)[C@@H]1CC[C@@]13C=C[C@@](C)(CC[C@H]12)C3`, the concentration for half-maximal inhibition (IC50) came to 321 µM.

Take `CCCCCCCCCCCCCCCC(=O)OC[C@@]1(C)CCC[C@]2(C)[C@@H]1CC[C@@]13C=C[C@@](C)(CC[C@H]12)C3`: the IC50 stood at 64 µM.

With `C[C@]12C=C[C@@]3(CC[C@@H]4[C@@](C)(COC(=O)/C=C/c5ccccc5)CCC[C@@]4(C)[C@@H]3CC1)C2`, the 50% inhibitory concentration (IC50) stood at 30 µM.

Consider `CCCCCCCCCC(=O)OC[C@@]1(C)CCC[C@]2(C)[C@@H]1CC[C@@]13C=C[C@@](C)(CC[C@H]12)C3`, for which the half-maximal inhibitory concentration (IC50) amounted to 21 µM.

Turning to `C[C@]12C=C[C@@]3(CC[C@@H]4[C@@](C)(COC(=O)/C=C/c5cccc([N+](=O)[O-])c5)CCC[C@@]4(C)[C@@H]3CC1)C2`, the IC50 is 29 µM.

A further assay relates to Mus musculus. The assay is described as follows: Gastroprotective activity in Swiss albino mouse model of HCl/EtOH-induced lesion pre-treated with 3.5 mg/kg vanilloid receptor antagonist ruthenium red assessed as gastric lesion index at 50 mg/kg, po dosed 50 mins before HCl/EtOH challenge and measured 1 hr post HCl/EtOH challenge (reference value: 12.1 +/- 2.5 mm). The assay is classed as functional, Stomach.
Details: not given
With `C[C@]12C=C[C@@]3(CC[C@@H]4[C@@](C)(COC(=O)/C=C/c5cccc(Cl)c5)CCC[C@@]4(C)[C@@H]3CC1)C2`, the Activity worked out at 17 mm.

System in another assay: not listed separately
Kind of assay: Cytotoxic activity against human fibroblasts assessed as reduction in cell viability incubated for 48 hrs by MTT assay. The assay is classed as cell-based. The settings on record: Fibroblast.
With `C[C@]12C=C[C@@]3(CC[C@@H]4[C@@](C)(COC(=O)/C=C/c5ccc([N+](=O)[O-])cc5)CCC[C@@]4(C)[C@@H]3CC1)C2`, the IC50 was determined as 61 µM.

For the compound `C[C@]12C=C[C@@]3(CC[C@@H]4[C@@](C)(COC(=O)/C=C/c5ccc(F)cc5)CCC[C@@]4(C)[C@@H]3CC1)C2`, the concentration for half-maximal inhibition (IC50) was 69 µM.

Regarding `COc1ccc(/C=C/C(=O)OC[C@@]2(C)CCC[C@]3(C)[C@@H]2CC[C@@]24C=C[C@@](C)(CC[C@H]23)C4)cc1`, the IC50 was determined as 378 µM.

As for `C[C@]12C=C[C@@]3(CC[C@@H]4[C@@](C)(COC(=O)/C=C/c5cccc(Cl)c5)CCC[C@@]4(C)[C@@H]3CC1)C2`, the IC50 was 15 µM.

For `CCCCCCCCCCCCCC(=O)OC[C@@]1(C)CCC[C@]2(C)[C@@H]1CC[C@@]13C=C[C@@](C)(CC[C@H]12)C3`, the IC50 amounted to 61 µM.

In the case of `CCCCCCCCCCCCCCCCCCCC(=O)OC[C@@]1(C)CCC[C@]2(C)[C@@H]1CC[C@@]13C=C[C@@](C)(CC[C@H]12)C3`, the IC50 amounted to 581 µM.

Consider `CCCCCCCCCCCCCCCC(=O)OC[C@@]1(C)CCC[C@]2(C)[C@@H]1CC[C@@]13C=C[C@@](C)(CC[C@H]12)C3`, for which the IC50 turned out to be 88 µM.

Regarding `C[C@]12C=C[C@@]3(CC[C@@H]4[C@@](C)(COC(=O)/C=C/c5ccccc5)CCC[C@@]4(C)[C@@H]3CC1)C2`, the IC50 stood at 45 µM.

Turning to `CCCCCCCCCC(=O)OC[C@@]1(C)CCC[C@]2(C)[C@@H]1CC[C@@]13C=C[C@@](C)(CC[C@H]12)C3`, the IC50 was 33 µM.

`C[C@]12C=C[C@@]3(CC[C@@H]4[C@@](C)(COC(=O)/C=C/c5cccc([N+](=O)[O-])c5)CCC[C@@]4(C)[C@@H]3CC1)C2`: the IC50 came to 44 µM.

For another assay, the system named is Mus musculus. The assay is described as follows: Gastroprotective activity in Swiss albino mouse model of HCl/EtOH-induced lesion assessed as gastric lesion index at 50 mg/kg, po dosed 50 mins before HCl/EtOH challenge and measured 1 hr post HCl/EtOH challenge (reference value: 42 +/- 1.9 mm).
Details: not given
The assay is classed as functional, Stomach.
Regarding `C[C@]12C=C[C@@]3(CC[C@@H]4[C@@](C)(COC(=O)/C=C/c5cccc(Cl)c5)CCC[C@@]4(C)[C@@H]3CC1)C2`, the Activity was determined as 12.1 mm.

In the next assay the test system is Mus musculus. Kind of assay: Gastroprotective activity in Swiss albino mouse model of HCl/EtOH-induced lesion assessed as gastric lesion index at 10 mg/kg, po dosed 50 mins before HCl/EtOH challenge and measured 1 hr post HCl/EtOH challenge (reference value: 42 +/- 1.9 mm). The assay is classed as functional, Stomach.
Details: not given
With `CCN1C(=O)C=CC1=O` [N-ETHYLMALEIMIDE], the Activity is 41.9 mm.

For `COc1ccc2c(c1)c(CC(=O)O)c(C)n2C(=O)c1ccc(Cl)cc1` [INDOMETHACIN], the Activity was 39.9 mm.

In another assay the test system is Mus musculus. Kind of assay: Gastroprotective activity in Swiss albino mouse model of HCl/EtOH-induced lesion assessed as inhibition of gastric lesions at 50 mg/kg, po dosed 50 mins before HCl/EtOH challenge and measured 1 hr post HCl/EtOH challenge. The assay is classed as functional. The settings on record: Stomach.
As a reminder, the inhibition in vivo is the change of the read-out against control, counted positive when it falls. Consider `C[C@]12C=C[C@@]3(CC[C@@H]4[C@@](C)(COC(=O)/C=C/c5ccc([N+](=O)[O-])cc5)CCC[C@@]4(C)[C@@H]3CC1)C2`, for which the inhibition in vivo at 50 mg/kg is 0%.

Consider `C[C@]12C=C[C@@]3(CC[C@@H]4[C@@](C)(COC(=O)/C=C/c5ccc(F)cc5)CCC[C@@]4(C)[C@@H]3CC1)C2`, for which the inhibition in vivo at 50 mg/kg came to 24%.

In the case of `COc1ccc(/C=C/C(=O)OC[C@@]2(C)CCC[C@]3(C)[C@@H]2CC[C@@]24C=C[C@@](C)(CC[C@H]23)C4)cc1`, the inhibition in vivo at 50 mg/kg is 11%.

In the case of `C[C@]12C=C[C@@]3(CC[C@@H]4[C@@](C)(COC(=O)/C=C/c5cccc(Cl)c5)CCC[C@@]4(C)[C@@H]3CC1)C2`, the inhibition in vivo at 50 mg/kg is 77%.

On to `CCCCCCCCCCCCCC(=O)OC[C@@]1(C)CCC[C@]2(C)[C@@H]1CC[C@@]13C=C[C@@](C)(CC[C@H]12)C3`, for which the inhibition in vivo at 50 mg/kg came out at 46%.

Turning to `CCCCCCCCCCCCCCCCCCCC(=O)OC[C@@]1(C)CCC[C@]2(C)[C@@H]1CC[C@@]13C=C[C@@](C)(CC[C@H]12)C3`, the inhibition in vivo at 50 mg/kg came to 34%.

With `CCCCCCCCCCCCCCCC(=O)OC[C@@]1(C)CCC[C@]2(C)[C@@H]1CC[C@@]13C=C[C@@](C)(CC[C@H]12)C3`, the inhibition in vivo at 50 mg/kg came to 46%.

For the compound `C[C@]12C=C[C@@]3(CC[C@@H]4[C@@](C)(COC(=O)/C=C/c5ccccc5)CCC[C@@]4(C)[C@@H]3CC1)C2`, the inhibition in vivo at 50 mg/kg amounted to 68%.

Turning to `CCCCCCCCCC(=O)OC[C@@]1(C)CCC[C@]2(C)[C@@H]1CC[C@@]13C=C[C@@](C)(CC[C@H]12)C3`, the inhibition in vivo at 50 mg/kg worked out at 52%.

As for `C[C@]12C=C[C@@]3(CC[C@@H]4[C@@](C)(COC(=O)/C=C/c5cccc([N+](=O)[O-])c5)CCC[C@@]4(C)[C@@H]3CC1)C2`, the inhibition in vivo at 50 mg/kg is 2%.

The subject of another assay is Mus musculus. Kind of assay: Gastroprotective activity in Swiss albino mouse model of HCl/EtOH-induced lesion pre-treated with 70 mg/kg NO synthase inhibitor L-NAME assessed as gastric lesion index at 50 mg/kg, po dosed 50 mins before HCl/EtOH challenge and measured 1 hr post HCl/EtOH challenge (reference value: 12.1 +/- 2.5 mm). The assay is classed as functional, Stomach.
Details: not given
As for `C[C@]12C=C[C@@]3(CC[C@@H]4[C@@](C)(COC(=O)/C=C/c5cccc(Cl)c5)CCC[C@@]4(C)[C@@H]3CC1)C2`, the Activity worked out at 13.1 mm.

In another assay the test system is Mus musculus. The assay is described as follows: Gastroprotective activity in Swiss albino mouse model of HCl/EtOH-induced lesion pre-treated with 10 mg/kg sulfhydryl inhibitor NEM assessed as gastric lesion index at 50 mg/kg, po dosed 50 mins before HCl/EtOH challenge and measured 1 hr post HCl/EtOH challenge (reference value: 12.1 +/- 2.5 mm). The assay is classed as functional, Stomach.
Details: not given
On to `C[C@]12C=C[C@@]3(CC[C@@H]4[C@@](C)(COC(=O)/C=C/c5cccc(Cl)c5)CCC[C@@]4(C)[C@@H]3CC1)C2`, for which the Activity is on record as 15.2 mm.

For a further assay, the system named is Mus musculus. Kind of assay: Gastroprotective activity in Swiss albino mouse model of HCl/EtOH-induced lesion pre-treated with 10 mg/kg prostaglandin synthesis inhibitor indomethacin assessed as gastric lesion index at 50 mg/kg, po dosed 50 mins before HCl/EtOH challenge and measured 1 hr post HCl/EtOH challenge (reference value: 12.1 +/- 2.5 mm). The assay is classed as functional, Stomach.
Details: not given
Regarding `C[C@]12C=C[C@@]3(CC[C@@H]4[C@@](C)(COC(=O)/C=C/c5cccc(Cl)c5)CCC[C@@]4(C)[C@@H]3CC1)C2`, the Activity was 38.9 mm.
